Reference: US9115341B2, “Method for expanding hematopoietic stem cells using heterocyclic compound” (Nissan Chemical Industries, Ltd., priority 2007, dated 2015)

Each compound was assayed on human cord blood-derived CD34+ cells (assay: Expansion of CD34+ cells from human cord blood-derived CD34+ cells). Details: 168 h, 0.3 μg/mL compound, number of CD34+ cells relative to absence of compound, 7 days, StemSpan SFEM with 100 ng/mL SCF, read-out: Expansion efficiency.
Type: cell-based
Procedure: Commercially available human cord blood-derived CD34^+ cells (Cambrex Bio Science Walkersville) were plated on a 12-well plate (Corning) (from 5000 to 10000 cells/1 ml/well). As the culture medium, StemSpan SFEM (Stemcell Technologies) containing 100 ng/mL SCF (R&D Systems) was used, and Compounds Nos. 1 to 37 dissolved in dimethyl sulfoxide were added in an amount of 0.1% (v/v) to a final concentration of 0.3 or 1 μg/mL.
After the cells were incubated in liquid culture at 37° C. for 7 days in a CO2 incubator (in an atmosphere containing 5 vol % CO2), the total number of cells was counted by trypan blue assay (Invitrogen) or Flow-Count™ fluorosphere assay (Beckman Coulter). The number of CD34^+ cells was calculated as follows. After the incubation, the cells in the liquid culture was stained with a CD34 antibody (PE, Becton, Dickinson and Company). The stained cells were analyzed with a flow cytometer (Beckman Coulter) to determined the proportion of CD34^+ cells, which was multiplied by the total number of cells to calculate the number of CD34^+ cells.
The expansion efficiencies in the presence of 0.3 μg/mL or 1 μg/mL of compounds based on the number of CD34^+ cells in the absence of them are shown in Table 2 on a scale of A for expansion efficiencies of 3 or greater, and B for expansion efficiencies of at least 2 and less than 3.

Row | SMILES | fold induction at 0.3 µg/mL
1 | C/C(=N\NC(=O)c1ccc(C(=O)NCCc2ccccn2)s1)c1csc(-c2ccc(Cl)c(Cl)c2)c1O [Compound 27] | 2 to 3
2 | C/C(=N\NC(=O)c1ccc(C(=O)NCCc2cccnc2)s1)c1csc(-c2ccc(Cl)c(Cl)c2)c1O [Compound 29] | ≥ 3
3 | C/C(=N\NC(=O)c1ccc(C(=O)NCCc2ccncc2)s1)c1csc(-c2ccc(OC(F)(F)F)cc2)c1O [Compound 30] | ≥ 3
4 | C/C(=N\NC(=O)c1ccc(C(=O)NCCc2ccncc2)s1)c1csc(-c2ccc(C(F)(F)F)cc2)c1O [Compound 31] | ≥ 3
5 | C/C(=N\NC(=O)c1ccc(C(=O)NCCc2cccnc2)s1)c1csc(-c2ccc(OC(F)(F)F)cc2)c1O [Compound 32] | ≥ 3
6 | C/C(=N\NC(=O)c1ccc(C(=O)NCCc2cccnc2)s1)c1csc(-c2ccc(C(F)(F)F)cc2)c1O [Compound 33] | ≥ 3

Same assay, conditions: 168 h, 1 μg/mL compound, number of CD34+ cells relative to absence of compound, 7 days, StemSpan SFEM with 100 ng/mL SCF, read-out: Expansion efficiency

Row | SMILES | fold induction at 1 µg/mL
7 | C/C(=N\NC(=S)Nc1ccc(C(=O)O)cc1)c1nn(C)c(-c2ccc(C(F)(F)F)cc2)c1O [Compound 1] | ≥ 3
8 | C/C(=N\NC(=O)c1ccc(C(=O)O)cc1)c1csc(-c2ccc(Cl)c(Cl)c2)c1O [Compound 2] | 2 to 3
9 | C/C(=N\NC(=S)Nc1ccc(C(=O)O)cc1)c1csc(-c2ccc(C(F)(F)F)cc2)c1O [Compound 3] | ≥ 3
10 | C/C(=N\NC(=O)c1ccc(C(=O)O)c([NH2+][O-])c1)c1csc(-c2ccc(C(C)(C)C)cc2)c1O [Compound 4] | ≥ 3
11 | C/C(=N\NC(=O)c1ccc(C(=O)O)c([NH2+][O-])c1)c1csc(-c2ccc(Cl)c(Cl)c2)c1O [Compound 5] | 2 to 3
12 | C/C(=N\NC(=O)c1ccc(C(=O)O)s1)c1csc(-c2ccc(Cl)c(Cl)c2)c1O [Compound 6] | 2 to 3
13 | C/C(=N\NC(=O)c1ccc(C(=O)O)s1)c1csc(-c2ccc(C(F)(F)F)cc2)c1O [Compound 7] | ≥ 3
14 | C/C(=N\NC(=O)c1ccc(C(=O)O)c([NH2+][O-])c1)c1csc(-c2ccc(C(F)(F)F)cc2)c1O [Compound 8] | ≥ 3
15 | C/C(=N\NC(=S)Nc1ccc(C(=O)O)c([N+](=O)[O-])c1)c1csc(-c2ccc(C(C)(C)C)cc2)c1O [Compound 10] | ≥ 3
16 | C/C(=N\NC(=S)Nc1ccc(C(=O)O)c([N+](=O)[O-])c1)c1csc(-c2ccc(Cl)c(Cl)c2)c1O [Compound 11] | ≥ 3
17 | C/C(=N\NC(=S)Nc1ccc(C(=O)O)c([N+](=O)[O-])c1)c1csc(-c2ccc(C(F)(F)F)cc2)c1O [Compound 12] | ≥ 3
18 | C/C(=N\NC(=S)Nc1ccc(C(=O)O)c(Cl)c1)c1nn(C)c(-c2ccc(C(F)(F)F)cc2)c1O [Compound 13] | ≥ 3
19 | C/C(=N\NC(=S)Nc1ccc(C(=O)O)c(Cl)c1)c1csc(-c2ccc(Cl)c(Cl)c2)c1O [Compound 14] | ≥ 3
20 | C/C(=N\NC(=O)c1ccc(C(=O)N2CCCC2)s1)c1csc(-c2ccc(C(F)(F)F)cc2)c1O [Compound 15] | ≥ 3
21 | C/C(=N\NC(=S)Nc1cccc(C(=O)O)c1)c1csc(-c2ccc(Cl)c(Cl)c2)c1O [Compound 16] | 2 to 3
22 | C/C(=N\NC(=S)Nc1cccc(C(=O)O)c1)c1nn(C)c(-c2ccc(C(F)(F)F)cc2)c1O [Compound 18] | ≥ 3
23 | C/C(=N\NC(=O)c1ccc(C(=O)NCCO)s1)c1csc(-c2ccc(C(F)(F)F)cc2)c1O [Compound 19] | ≥ 3
24 | C/C(=N\NC(=S)Nc1cccc(C(=O)O)c1)c1csc(-c2ccc(C(C)(C)C)cc2)c1O [Compound 20] | ≥ 3
25 | C/C(=N\NC(=S)Nc1cccc(C(=O)O)c1)c1csc(-c2ccc(C)c(C)c2)c1O [Compound 21] | ≥ 3
26 | C/C(=N\NC(=S)Nc1ccc(C(=O)O)cc1)c1csc(-c2ccc(C)c(C)c2)c1O [Compound 22] | ≥ 3
27 | C/C(=N\NC(=S)Nc1ccc(S(N)(=O)=O)cc1)c1nn(C)c(-c2ccc(Cl)c(Cl)c2)c1O [Compound 23] | 2 to 3
28 | C/C(=N\NC(=O)c1ccc(C(=O)O)cc1N)c1nn(C)c(-c2ccc(C(F)(F)F)cc2)c1O [Compound 24] | ≥ 3
29 | C/C(=N\NC(=O)c1ccc(C(=O)NCC(=O)O)s1)c1csc(-c2ccc(OC(F)(F)F)cc2)c1O [Compound 25] | ≥ 3
30 | C/C(=N\NC(=O)c1ccc(C(=O)NC(C)C)s1)c1nn(C)c(-c2ccc(Cl)c(Cl)c2)c1O [Compound 26] | ≥ 3
31 | C/C(=N\NC(=O)c1ccc(C(=O)NCCc2ccncc2)s1)c1csc(-c2ccc(Cl)c(Cl)c2)c1O [Compound 28] | ≥ 3
32 | C/C(=N\NC(=O)c1ccc(C(=O)NCCCc2ccncc2)s1)c1csc(-c2ccc(Cl)c(Cl)c2)c1O [Compound 34] | ≥ 3
33 | C/C(=N\NC(=O)c1ccc(C(=O)NCCc2ccnn2C)s1)c1csc(-c2ccc(Cl)c(Cl)c2)c1O [Compound 35] | ≥ 3
34 | C/C(=N\NC(=O)c1ccc(C(=O)NCCCc2ccncc2)s1)c1csc(-c2ccc(C(F)(F)F)cc2)c1O [Compound 36] | ≥ 3
35 | C/C(=N\NC(=O)c1ccc(C(=O)NCc2cc(C)n(C)n2)s1)c1nn(C)c(-c2ccc(C(F)(F)F)cc2)c1O [Compound 37] | ≥ 3
